Reference: patent US5922723A, “Pharmaceutical compositions for prevention and treatment of central nervous system disorders” (priority 1996, dated 1999)
Structures can show the parent of a compound that is named as a salt.

Legend:
[1] = target: T1, ganglionic-type neuronal nicotinic receptors (rat pheochromocytoma clonal line PC12) (Rattus norvegicus, UniProt P04757+P12392); assay type: cell-based; conditions: for Ganglion Effect: pc12 cells; for effects at ganglionic sites (in words): summary of Table I
T1 construct: tumor of the rat adrenal medulla expressing ganglionic-typeneuronal nicotinic receptors; endogenous in cells; host or cells: PC12 (rat pheochromocytoma clonal line), intact cells

[2] = target: T2, muscle-like nicotinic receptors (human clonal line TE671/RD) (Homo sapiens, UniProt P02708+P07510+Q07001); assay type: cell-based; conditions: for effects at muscle sites (in words): summary of Table I; for Muscle Effect: te671/rd cells
T2 construct: these cells express muscle-like nicotinic receptors; endogenous in cells; host or cells: TE671/RD (human embryonal rhabdomyosarcoma clonal line), intact cells
Experimental: Discussion concerning the heterogeneity of nicotinic receptors subtypes is set forth in Lukas et al., Internatl. […] Acetylcholine nicotinic receptors expressed in rat ganglia share a very high degree of homology with their human counterparts. See, Fornasari et al., Neurosci. […] Intact cells on dishes were used for functional studies.
Specific ion efflux was determined as the difference in isotope efflux between total and non-specific efflux samples.

[3] = target: CNS nicotinic receptors; experiment: Inhibition of L-[3H]nicotine binding to rat brain membrane preparations; set-up: species or system rat (Sprague-Dawley); conditions: for Ki: 10 nM L-[3H]nicotine, 2 hr at 4° C., rat brain membranes, calculated from IC50 (Cheng et al.); for binding to CNS nicotinic receptors (in words): summary of Table I
Experimental: Rats (Sprague-Dawley) were maintained on a 12 hour light/dark cycle and were allowed free access to water and food supplied by Wayne Lab Blox, Madison, Wis. Animals used in the present studies weighed 200 to 250 g. Brain membrane preparations were obtained from brain tissue of either males or females.
Rats were killed by decapitation following anesthesia with 70% CO2. Brains were removed and placed on an ice-cold platform. […] The resulting homogenate was centrifuged at 18,000× g for 20 min. and the resulting pellet was resuspended in 20 volumes of water. After 60 min. incubation at 4° C., a new pellet was collected by centrifugation at 18,000× g for 20 min. After resuspension in 10 volumes of buffer, a new final pellet was again collected by centrifugation at 18,000× g for 20 min. Prior to each centrifugation step, the suspension was incubated at 37° C. for 5 min. to promote hydrolysis of endogenous acetylcholine. The final pellet was overlayered with buffer and stored at -70° C. On the day of the assay, that pellet was thawed, resuspended in buffer and centrifuged at 18,000× g for 20 min. The pellet obtained was resuspended in buffer to a final concentration of approximately 5 mg protein/ml.
The binding of L-[^3 H]nicotine was measured using a 2 hr. incubation at 4° C. Incubations contained about 500 μg of protein and were conducted in 12 mm×75 mm polypropylene test tubes in a final incubation volume of 250 μl. The incubation buffer was Krebs-Ringers HEPES containing 200 mM TRIS buffer, pH 7.5. The binding reaction was terminated by filtration of the protein containing bound ligand onto glass fiber filters (Micro Filtration Systems) that had been soaked in buffer containing 0.5 percent polyethyleneimine. Filtration vacuum was -50 to -100 torr. Each filter was washed five times with 3 ml of ice-cold buffer. The filtration apparatus was cooled to 2° C. before use and was kept cold through the filtration process. Nonspecific binding was determined by inclusion of 10 uM nonradioactive nicotine in the incubations.
The inhibition of L-[^3 H]nicotine binding by test compounds was determined by including one of eight different concentrations of the test compound in the incubation.

[4] = test system: synaptosomes from the striatal area of rat brain (dopamine release); experiment: Dopamine release from synaptosomes of the striatal area of rat brain; assay type: biochemical, rat (Sprague-Dawley); conditions: for EC50: [3H]-dopamine; for dopamine release (in words): summary of Table I
Experimental: Striata from 4 rats were homogenized in 2 ml of 0.32 M sucrose buffered with 5 mM HEPES (pH 7.5), using a glass-Teflon tissue grinder. The homogenate was diluted to 5 ml with additional homogenization solution and centrifuged at 1,000× g for 10 min. This procedure was repeated on the new pellet and the resulting supernatant was centrifuged at 12,000× g for 20 min. A 3 layer discontinuous Percoll gradient consisting of 16 percent, 10 percent and 7.5 percent Percoll in HEPES-buffered sucrose was made with the final pellet dispersed in the top layer. […] The new pellet was collected and re-suspended in perfusion buffer. The synaptosome suspension was incubated for 10 min. at 37° C. [^3 H]-Dopamine (Amersham, 40-60 Ci/mmol) was added to the suspension to give a final concentration of 0.1 uM, and the suspension was incubated for another 5 min. […] A continuous perfusion system was used to monitor release following exposure to each ligand. Synaptosomes were loaded onto glass fiber filters (Gelman type A/E). Perfusion buffer was dripped onto the filters (0.2-0.3 ml/min.) and pulled through the filters with a peristaltic pump. Synaptosomes were washed with perfusion buffer for a minimum of 20 min. before addition of the ligand. After the addition of 0.2 ml of a solution containing various concentrations of ligand, the perfusate was collected into scintillation vials at 1 min. intervals and the dopamine released was quantified by scintillation counting. Peaks of radioactivity released above background were summed and the average basal release during that time was subtracted from the total.

[5] = rat striatal synaptosomes, % of release by equal concentration of (S)-(-)-nicotine

T1 sequence (P04757 26-499): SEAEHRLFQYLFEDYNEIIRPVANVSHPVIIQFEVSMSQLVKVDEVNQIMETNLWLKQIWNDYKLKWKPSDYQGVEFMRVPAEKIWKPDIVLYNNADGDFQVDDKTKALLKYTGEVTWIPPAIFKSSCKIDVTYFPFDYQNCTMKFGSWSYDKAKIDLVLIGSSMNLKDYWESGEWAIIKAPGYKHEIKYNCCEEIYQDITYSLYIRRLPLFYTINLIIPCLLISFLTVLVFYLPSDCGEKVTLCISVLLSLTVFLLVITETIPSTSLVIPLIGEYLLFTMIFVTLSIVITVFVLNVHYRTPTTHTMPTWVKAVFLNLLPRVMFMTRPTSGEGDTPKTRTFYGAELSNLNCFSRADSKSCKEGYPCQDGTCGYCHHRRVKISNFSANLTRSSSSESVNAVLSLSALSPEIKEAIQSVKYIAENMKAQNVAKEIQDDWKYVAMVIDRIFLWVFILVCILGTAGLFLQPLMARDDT
T1 sequence (P12392 21-495): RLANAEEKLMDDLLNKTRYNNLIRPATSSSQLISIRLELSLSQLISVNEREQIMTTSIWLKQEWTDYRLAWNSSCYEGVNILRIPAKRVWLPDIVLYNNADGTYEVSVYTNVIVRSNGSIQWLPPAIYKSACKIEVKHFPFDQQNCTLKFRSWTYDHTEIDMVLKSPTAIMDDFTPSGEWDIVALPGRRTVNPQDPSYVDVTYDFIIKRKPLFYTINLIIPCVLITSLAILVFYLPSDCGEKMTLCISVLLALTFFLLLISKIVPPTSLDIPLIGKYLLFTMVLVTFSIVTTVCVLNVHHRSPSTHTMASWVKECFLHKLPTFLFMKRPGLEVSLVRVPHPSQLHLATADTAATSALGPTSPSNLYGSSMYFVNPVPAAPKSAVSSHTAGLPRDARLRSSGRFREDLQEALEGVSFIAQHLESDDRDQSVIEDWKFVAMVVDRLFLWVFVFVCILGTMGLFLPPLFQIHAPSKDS
T2 sequence (P02708 21-457): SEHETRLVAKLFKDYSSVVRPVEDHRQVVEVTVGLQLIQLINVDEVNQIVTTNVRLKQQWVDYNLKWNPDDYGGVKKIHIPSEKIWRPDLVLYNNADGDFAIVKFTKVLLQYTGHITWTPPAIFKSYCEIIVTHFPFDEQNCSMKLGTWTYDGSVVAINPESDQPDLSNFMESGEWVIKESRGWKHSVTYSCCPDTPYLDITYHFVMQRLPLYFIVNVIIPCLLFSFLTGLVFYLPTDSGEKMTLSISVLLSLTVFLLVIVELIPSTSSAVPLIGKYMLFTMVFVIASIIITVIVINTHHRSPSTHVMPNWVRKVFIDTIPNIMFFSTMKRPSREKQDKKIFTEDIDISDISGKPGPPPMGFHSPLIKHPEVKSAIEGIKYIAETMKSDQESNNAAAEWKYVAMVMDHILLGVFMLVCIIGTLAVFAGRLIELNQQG
T2 sequence (Q07001 22-517): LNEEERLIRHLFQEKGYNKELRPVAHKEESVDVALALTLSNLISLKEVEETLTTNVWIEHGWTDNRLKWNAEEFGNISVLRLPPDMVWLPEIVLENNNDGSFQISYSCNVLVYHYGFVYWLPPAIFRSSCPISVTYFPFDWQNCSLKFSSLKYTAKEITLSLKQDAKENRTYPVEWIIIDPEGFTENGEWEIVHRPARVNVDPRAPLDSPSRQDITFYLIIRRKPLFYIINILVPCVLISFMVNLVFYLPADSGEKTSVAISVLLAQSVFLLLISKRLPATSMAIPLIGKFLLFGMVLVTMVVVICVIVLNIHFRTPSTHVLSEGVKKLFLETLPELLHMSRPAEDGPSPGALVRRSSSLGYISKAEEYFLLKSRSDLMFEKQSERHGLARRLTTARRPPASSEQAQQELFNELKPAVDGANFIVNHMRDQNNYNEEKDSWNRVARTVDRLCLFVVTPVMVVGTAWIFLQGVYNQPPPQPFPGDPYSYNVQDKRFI
T2 sequence (P07510 23-517): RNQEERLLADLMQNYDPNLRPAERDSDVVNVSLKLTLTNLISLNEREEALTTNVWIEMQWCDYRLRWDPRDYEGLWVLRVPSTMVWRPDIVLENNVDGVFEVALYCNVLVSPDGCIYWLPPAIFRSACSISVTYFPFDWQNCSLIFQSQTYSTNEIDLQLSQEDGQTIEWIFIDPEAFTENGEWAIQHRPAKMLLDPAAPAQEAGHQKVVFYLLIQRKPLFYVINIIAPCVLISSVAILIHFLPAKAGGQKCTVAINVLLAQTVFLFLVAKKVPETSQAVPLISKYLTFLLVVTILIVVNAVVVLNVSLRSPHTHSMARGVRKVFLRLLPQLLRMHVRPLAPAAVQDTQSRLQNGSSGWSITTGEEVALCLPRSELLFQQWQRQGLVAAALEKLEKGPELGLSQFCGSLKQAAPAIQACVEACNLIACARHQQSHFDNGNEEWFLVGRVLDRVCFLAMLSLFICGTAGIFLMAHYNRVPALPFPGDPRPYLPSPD

| Structure (SMILES) | Ganglion Effect [1] | effects at ganglionic sites (in words) [1] | effects at muscle sites (in words) [2] | Muscle Effect [2] | Ki [3] | binding to CNS nicotinic receptors (in words) [3] | EC50 ([4]; rat striatal synaptosomes) | Dopamine Release Emax [4, 5] | Dopamine Release Emax ([4]; Emax at 100 uM, % of release by (S)-(-)-nicotine) | dopamine release (in words) [4] |
| --- | --- | --- | --- | --- | --- | --- | --- | --- | --- | --- |
| CN1[C@H](c2cccnc2)[C@@H]2C=C[C@H]1C2 (relative stereo) [Sample No. 10, (+/-)-endo-2-methyl-3-(3-pyridyl)-2-azabicyclo[2.2.1]hept-5-ene] | 18 | desirably low effects at muscle sites and ganglionic sites | desirably low effects at muscle sites | 25 | 3 nM | good high affinity binding to CNS nicotinic receptors | 86 nM | 44 % nicotine |  |  |
| CN1[C@H](c2cncc(Br)c2)[C@@H]2C=C[C@H]1C2 (relative stereo) [Sample No. 12, (+/-)-endo-2-methyl-3-[3-(5-bromopyridyl)]-2-azabicyclo[2.2.1]hept-5-ene] | 4 |  |  | 2 | 2100 nM |  | 1650 nM | 12 % nicotine |  |  |
| CCN1[C@H](c2cccnc2)[C@@H]2C=C[C@H]1C2 (relative stereo) [Sample No. 7, (+/-)-endo-2-ethyl-3-(3-pyridyl)-2-azabicyclo[2.2.1]hept-5-ene] | 2 |  |  | 18 | 7820 nM |  | 12900 nM | 22 % nicotine |  |  |
| CN1[C@H]2C=C[C@H](C2)[C@@H]1c1cccnc1 (relative stereo) [compound 11, (+/-)-exo-2-methyl-3-(3-pyridyl)-2-azabicyclo[2.2.1]hept-5-ene] | 55 |  |  | 7 | 9 nM | good high affinity binding to CNS nicotinic receptors | 90 nM | 58 % nicotine |  |  |
| CN1[C@H](c2cccnc2)[C@@H]2C=C[C@H]1CC2 (relative stereo) [Sample No. 3, (+/-)-endo-2-methyl-3-(3-pyridyl)-2-azabicyclo[2.2.2]oct-5-ene fumarate] | 0 |  |  | 0 | 6360 nM |  | 13000 nM | 9 % nicotine |  |  |
| O=C(O)/C=C/C(=O)O.c1cncc(C2NC3CCC2CC3)c1 (racemic) [compound 5, (+/-)-3-(3-pyridyl)-2-azabicyclo[2.2.2]octane fumarate] | 3 | desirably low effects at muscle sites and ganglionic sites | desirably low effects at muscle sites | 9 | 35 nM | good high affinity binding to CNS nicotinic receptors | 2550 nM | 4 % nicotine |  |  |
| CN1[C@H]2C=C[C@H](CC2)[C@@H]1c1cccnc1 (relative stereo) [Sample No. 4, (+/-)-Exo-2-methyl-3-(3-pyridyl)-2-azabicyclo[2.2.2]oct-5-ene fumarate] | 8 | desirably low effects at muscle sites and ganglionic sites | desirably low effects at muscle sites | 8 | 33 nM | good high affinity binding to CNS nicotinic receptors | 35000 nM | 17 % nicotine |  |  |
| C1=C[C@H]2CC[C@@H]1[C@H](c1cccnc1)N2 (relative stereo) [Sample No. 2, (+/-)-exo-3-(3-pyridyl)-2-azabicyclo[2.2.2]oct-5-ene fumarate] | 65 |  |  | 103 | 2 nM | good high affinity binding to CNS nicotinic receptors | 300 nM | 41 % nicotine |  |  |
| CN1CCC[C@H]1c1cccnc1 [Sample No. C-1, (S)-(-)-nicotine, reference compound] |  |  |  |  |  |  |  | 100 % nicotine |  |  |
| COc1ccc(CN2[C@H](c3cccnc3)[C@@H]3C=C[C@H]2C3)cc1 (relative stereo) [Sample No. 8, (+/-)-endo-2-(p-methoxybenzyl)-3-(3-pyridyl)-2-azabicyclo[2.2.1]hept-5-ene] |  | desirably low effects at muscle sites and ganglionic sites | desirably low effects at muscle sites |  | 80800 nM |  | > 100000 nM |  | 15 % nicotine | induce dopamine release |
| C1=C[C@H]2C[C@@H]1[C@@H](c1cccnc1)N2Cc1ccccc1 (relative stereo) [compound 9, (+/-)-endo-2-benzyl-3-(3-pyridyl)-2-azabicyclo[2.2.1]hept-5-ene] | 11 | desirably low effects at muscle sites and ganglionic sites | desirably low effects at muscle sites | 7 | 141000 nM |  | 11000 nM | 30 % nicotine |  | induce dopamine release |
| CN1C2CCC(CC2)C1c1cccnc1 (racemic) [Sample No. 6, (+/-)-2-methyl-3-(3-pyridyl)-2-azabiyclo[2.2.2]octane fumarate] | 21 | desirably low effects at muscle sites and ganglionic sites | desirably low effects at muscle sites | 30 | 58 nM | good high affinity binding to CNS nicotinic receptors | 2000 nM | 10 % nicotine |  |  |
| C1=C[C@H]2CC[C@@H]1[C@@H](c1cccnc1)N2 (relative stereo) [Sample No. 1, (+/-)-endo 3-(3-pyridyl)-2-azabicyclo[2.2.2]oct-5-ene fumarate] | 12 |  |  | 69 | 476 nM |  | 550 nM | 14 % nicotine |  |  |
